Broadly, the EC50 is the concentration needed to bring the measured effect to its halfway point.

The values below come from patent US10196363B2, “Dihydropyrimidin-2-one compounds and medical use thereof” (JAPAN TOBACCO INC., priority 2014, dated 2019).

For one assay, the target named is T1, human RORγ (Homo sapiens, UniProt P51449).
T1 construct: human RORγ, from Ser253 to Lys518; expressed in transfected cells; host or cells: CHO cells (Chinese hamster ovary), transient co-transfection with pG5-Luc
T1 sequence (P51449 253-518): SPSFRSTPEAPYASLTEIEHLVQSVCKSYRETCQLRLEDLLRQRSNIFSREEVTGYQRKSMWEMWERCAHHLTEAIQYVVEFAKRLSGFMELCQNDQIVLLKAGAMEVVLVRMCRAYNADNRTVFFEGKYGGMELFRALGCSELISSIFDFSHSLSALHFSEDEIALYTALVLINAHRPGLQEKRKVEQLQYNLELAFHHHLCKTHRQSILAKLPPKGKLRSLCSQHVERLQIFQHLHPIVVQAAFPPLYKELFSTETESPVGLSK
The assay is described as follows: In vitro assay of inhibitory effect against RORγ transcriptional activity (GAL4-hRORγ LBD luciferase reporter gene assay in CHO cells). The class given is cell-based. The following applies: for EC50: GAL4-hRORγ LBD / pG5-Luc in CHO cells, 2 days incubation; for hRORγ luciferase activity, %-of-control: value in parentheses beside the > EC50 bound, vehicle-control 0.2% DMSO alone = 100%. The gist of the method: (§1)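 Luciferase signal, expressed relative to 0.2% DMSO vehicle as 100%, was the read-out after a 2-day compound exposure of CHO cells co-expressing a GAL4-RORγ LBD fusion and a GAL4-responsive reporter. EC50 values came from curve fitting, omitting points showing cytotoxicity.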
For orientation: Reporter assays use an easily measured gene product as a stand-in for the process of interest.

A further assay has as its target T2, mouse RORγ (Mus musculus, UniProt P51450).
T2 construct: mouse RORγ, from Ile251 to Lys516; expressed in transfected cells; host or cells: CHO cells (Chinese hamster ovary), transient co-transfection with pG5-Luc
T2 sequence (P51450 251-516): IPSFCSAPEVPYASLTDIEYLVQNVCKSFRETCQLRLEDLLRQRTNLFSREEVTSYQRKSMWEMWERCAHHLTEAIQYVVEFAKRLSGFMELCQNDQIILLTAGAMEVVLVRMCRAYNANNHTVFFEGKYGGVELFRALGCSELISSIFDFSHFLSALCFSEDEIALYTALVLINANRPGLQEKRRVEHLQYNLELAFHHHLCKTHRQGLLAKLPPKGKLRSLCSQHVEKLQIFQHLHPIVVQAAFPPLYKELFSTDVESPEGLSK
The assay is described as follows: In vitro assay of inhibitory effect against RORγ transcriptional activity (GAL4-mRORγ LBD luciferase reporter gene assay in CHO cells). The class given is cell-based. The following applies: for EC50: GAL4-mRORγ LBD / pG5-Luc in CHO cells, 2 days incubation; for mRORγ luciferase activity, %-of-control: value in parentheses beside the > EC50 bound, vehicle-control 0.2% DMSO alone = 100%. Put shortly:
as §1

For the molecule `CC(C)C1=CN(CCCC(C)(C)C(=O)O)C(=O)N[C@@]1(C)c1ccc(CCC(C)(C)C)c(Cl)c1` [Example 75], the EC50 is 296 nM at human RORγ and 316 nM at mouse RORγ.

For `CC(C)C1=CN(C23CC(C(=O)O)(C2)C3)C(=O)N[C@]1(C)c1ccc(CCC(C)(C)C)c(Cl)c1` [Example 76], the results for the EC50 on human RORγ and at mouse RORγ were 3470 nM and 6360 nM, respectively.

Turning to `CC(C)C1=CN(C23CC(C(=O)O)(C2)C3)C(=O)N[C@@]1(C)c1ccc(CCC(C)(C)C)c(Cl)c1` [Example 77], the EC50 stood at 15 nM at human RORγ and 24 nM at mouse RORγ.

For `CC(C)C1=CN([C@H]2CC[C@H](C(=O)O)CC2)C(=O)N[C@]1(C)c1ccc(CCC(C)(C)C)c(Cl)c1` [Example 78], the EC50 came out at 6490 nM on human RORγ and 10800 nM on mouse RORγ.

On to `CC(C)C1=CN([C@H]2CC[C@H](C(=O)O)CC2)C(=O)N[C@@]1(C)c1ccc(CCC(C)(C)C)c(Cl)c1` [Example 79], for which the values for the EC50 at human RORγ and on mouse RORγ were 16 nM and 18 nM, respectively.

`CC(C)C1=CN(CCc2ccccc2C(=O)O)C(=O)N[C@]1(C)c1ccc(CCC(C)(C)C)c(Cl)c1` [Example 82]: the results for the EC50 on human RORγ and at mouse RORγ were 980 nM and 790 nM, respectively.

As to `CC(C)C1=CN(CCc2ccccc2C(=O)O)C(=O)N[C@@]1(C)c1ccc(CCC(C)(C)C)c(Cl)c1` [Example 83], the EC50 at human RORγ was determined as 40 nM; on mouse RORγ, 43 nM.

With `CC(C)C1=CN(CCC(=O)O)C(=O)N[C@]1(C)c1ccc(CCC(C)(C)C)c(Cl)c1` [Example 86, 3-{(R)-4-[3-Chloro-4-(3,3-dimethyl-butyl)-phenyl]-5-isopropyl-4-methyl-2-oxo-3,4-dihydro-2H-pyrimidin-1-yl}-propionic Acid], the EC50 at human RORγ is 6770 nM; at mouse RORγ it was greater than 8000 nM. In addition, the “mRORγ luciferase activity, %-of-control” value at mouse RORγ is on record as “(51%)”.

Consider `CC(C)C1=CN(CCC(=O)O)C(=O)N[C@@]1(C)c1ccc(CCC(C)(C)C)c(Cl)c1` [Example 87, 3-{(S)-4-[3-Chloro-4-(3,3-dimethyl-butyl)-phenyl]-5-isopropyl-4-methyl-2-oxo-3,4-dihydro-2H-pyrimidin-1-yl}-propionic Acid], for which the EC50 on human RORγ was 11 nM; at mouse RORγ it was 15 nM.

For `CC(C)C1=CN(CC[C@@H](O)C(=O)O)C(=O)N[C@]1(C)c1ccc(CCC(C)(C)C)c(Cl)c1` [Example 88], the EC50 came to 443 nM on human RORγ and 422 nM on mouse RORγ.

Regarding `CC(C)C1=CN(CC[C@@H](O)C(=O)O)C(=O)N[C@@]1(C)c1ccc(CCC(C)(C)C)c(Cl)c1` [Example 89], the EC50 on human RORγ and on mouse RORγ was 16 nM throughout.

As to `CC(C)(C)CCc1ccc([C@@]2(C)NC(=O)N(CCCC(=O)O)C=C2C2CCOCC2)cc1Cl` [Example 91], the EC50 at human RORγ came to 539 nM; at mouse RORγ, 1150 nM.

Take `CC(C)(C)CCc1ccc([C@]2(C)NC(=O)N(CCCC(=O)O)C=C2C2CCOCC2)cc1Cl` [Example 92]: the EC50 came out at 13 nM on human RORγ and 20 nM at mouse RORγ.

Turning to `CC(C)C1=CN(CC(=O)O)C(=O)N[C@]1(C)c1ccc(CCC(C)(C)C)c(Cl)c1` [Example 93], the concentration giving a half-maximal response (EC50) came out at 2140 nM on human RORγ and 2540 nM at mouse RORγ.

Turning to `CC(C)C1=CN(CC(=O)O)C(=O)N[C@@]1(C)c1ccc(CCC(C)(C)C)c(Cl)c1` [Example 94], the EC50 on human RORγ came out at 152 nM; on mouse RORγ it was 142 nM.

As to `CC(C)(C)CCc1ccc([C@@]2(C)NC(=O)N([C@H]3C[C@H](C(=O)O)C3)C=C2C2CC(F)(F)C2)cc1Cl` [Example 95], at human RORγ, the EC50 is greater than 3200 nM and the “hRORγ luciferase activity, %-of-control” value is “(66%)”. On mouse RORγ, this molecule yielded an EC50 of 5680 nM.

Turning to `CC(C)(C)CCc1ccc([C@]2(C)NC(=O)N([C@H]3C[C@H](C(=O)O)C3)C=C2C2CC(F)(F)C2)cc1Cl` [Example 96], the EC50 at human RORγ was 33 nM; at mouse RORγ it was 26 nM.

As for `CC(C)C1=CN(CC2(C(=O)O)CC2)C(=O)N[C@]1(C)c1ccc(CCC(C)(C)C)c(Cl)c1` [Example 97], the results for the concentration giving a half-maximal response (EC50) on human RORγ and on mouse RORγ were 1340 nM and 3100 nM, respectively.

In the case of `CC(C)C1=CN(CC2(C(=O)O)CC2)C(=O)N[C@@]1(C)c1ccc(CCC(C)(C)C)c(Cl)c1` [Example 98], the EC50 worked out at 13 nM on human RORγ and 18 nM on mouse RORγ.

For the molecule `CC(C)(C)CCc1ccc([C@@]2(C)NC(=O)N([C@H]3C[C@H](C(=O)O)C3)C=C2C2CCOCC2)cc1Cl` [Example 99], the results for the EC50 on human RORγ and at mouse RORγ were 1510 nM and 2890 nM, respectively.

`CC(C)(C)CCc1ccc([C@]2(C)NC(=O)N([C@H]3C[C@H](C(=O)O)C3)C=C2C2CCOCC2)cc1Cl` [Example 100]: the EC50 at human RORγ turned out to be 20 nM; at mouse RORγ, 35 nM.

For `CC(C)C1=CN([C@H]2C[C@H](C(=O)O)C2)C(=O)N[C@]1(C)c1cc(Cl)c(CCC(C)(C)C)cc1F` [Example 103], at human RORγ, the EC50 is greater than 3200 nM and the “hRORγ luciferase activity, %-of-control” value is on record as “(65%)”. At mouse RORγ, the EC50 is greater than 3200 nM and the “mRORγ luciferase activity, %-of-control” value is recorded as “(50%)”.

For `CC(C)C1=CN([C@H]2C[C@H](C(=O)O)C2)C(=O)N[C@@]1(C)c1cc(Cl)c(CCC(C)(C)C)cc1F` [Example 104], the values for the 50% effective concentration (EC50) on human RORγ and on mouse RORγ were 50 nM and 31 nM, respectively.

Consider `CC(C)C1=CN([C@H]2C[C@H](CC(=O)O)C2)C(=O)N[C@@]1(C)c1ccc(CCC(C)(C)C)c(Cl)c1` [Example 108], for which the results for the EC50 at human RORγ and at mouse RORγ were 16 nM and 21 nM, respectively.

On to `CC(C)C1=CN(CCCC(=O)O)C(=O)N[C@]1(C)c1ccc(CCC2CCC2)c(Cl)c1` [Example 109], for which, on human RORγ, the EC50 is greater than 8000 nM and the “hRORγ luciferase activity, %-of-control” value is given as “(60%)”. Also, at mouse RORγ, the EC50 is greater than 8000 nM and the “mRORγ luciferase activity, %-of-control” value is “(67%)”.

Take `CC(C)C1=CN(CCCC(=O)O)C(=O)N[C@@]1(C)c1ccc(CCC2CCC2)c(Cl)c1` [Example 110]: the concentration for a half-maximal effect (EC50) on human RORγ is 11 nM; on mouse RORγ it was 10 nM.

Turning to `CC(C)C1=CN([C@H]2C[C@](C)(C(=O)O)C2)C(=O)N[C@]1(C)c1ccc(CCC(C)(C)C)c(Cl)c1` [Example 111], the EC50 is 405 nM on human RORγ and 481 nM on mouse RORγ.

Regarding `CC(C)C1=CN([C@H]2C[C@](C)(C(=O)O)C2)C(=O)N[C@@]1(C)c1ccc(CCC(C)(C)C)c(Cl)c1` [Example 112], the results for the EC50 on human RORγ and at mouse RORγ were 21 nM and 19 nM, respectively.

With `CC(C)C1=CN(CCC(=O)O)C(=O)N[C@@]1(C)c1ccc2c(c1)CC(C)(C)C2` [Example 113], the EC50 on human RORγ is 3030 nM; on mouse RORγ it was 1400 nM.

In the case of `CC(C)C1=CN(CCC(=O)O)C(=O)N[C@]1(C)c1ccc(C2=CCC(C)(C)CC2)c(Cl)c1` [Example 115, 3-{(R)-4-[3-Chloro-4-(4,4-dimethyl-cyclohex-1-enyl)-phenyl]-5-isopropyl-4-methyl-2-oxo-3,4-dihydro-2H-pyrimidin-1-yl}-propionic Acid], at human RORγ, the EC50 was greater than 8000 nM and the “hRORγ luciferase activity, %-of-control” value was “(110%)”. On mouse RORγ, the EC50 is greater than 8000 nM and the “mRORγ luciferase activity, %-of-control” value is “(100%)”.

Regarding `CC(C)C1=CN(CCC(=O)O)C(=O)N[C@@]1(C)c1ccc(C2=CCC(C)(C)CC2)c(Cl)c1` [Example 116, 3-{(S)-4-[3-chloro-4-(4,4-dimethyl-cyclohex-1-enyl)-phenyl]-5-isopropyl-4-methyl-2-oxo-3,4-dihydro-2H-pyrimidin-1-yl}-propionic Acid], the EC50 at human RORγ was 15 nM; at mouse RORγ it was 22 nM.
